Experimental findings from patent US8367060B2, “Pharmaceutical composition containing arazyme for the prevention of liver dysfunction” (Insect Biotech Co., Ltd., priority 2006, dated 2013) are described below.

SMILES strings stand for the structures. Entries after “also recorded” stand apart in the source; their conditions may differ.

The test system of experiment [1] is SMP30. Nature of the experiment: Immunohistochemical observation of SMP30 in liver cells. Type of experiment: in vivo. The settings on record: wild type mice, 100 mg/kg oral before CCl4, compared with CCl4 alone. On the procedure: (§1) Wild type mice and SMP30 knock-out mice were divided, by 5 of each, into negative control groups (G1, G5), positive control groups (G2, G6), two of experimental group 1 (G3, G7) and two of experimental group 2 (G4, G8) (Table 1). Intraperitoneal administration of olive oil was performed once to negative control mice (G1, G5), while intraperitoneal administration of CCl4 (0.4 ml/kg) was performed once to positive control mice (G2, G6). In the meantime, 100 mg/kg of vitamin C dissolved in tap water was orally administered to experimental group 1 mice (G3, G7) one day before the intraperitoneal administration of CCl4 (0.4 ml/kg). 100 mg/kg of arazyme dissolved in tap water was orally administered to experimental group 2 mice (G4, G8) one day before the intraperitoneal administration of CCl4 (0.4 ml/kg). 24 hours after the administration of CCl4, autopsy was performed in every mouse and samples were taken from each mouse for histopathological test.
To observe SMP30 in liver cells immunohistochemically, paraffin embedded tissues fixed with formalin were cut into 4 μm thick sections, followed by deparaffinization. To inhibit the activity of endogenous peroxidase, the sections were treated in 3% H2O2 for 30 minutes and washed with 0.01 M PBS. To increase antigen expression of the tissues, the sections were treated with 0.01 M citrate buffer, followed by heat treatment using microwave. […]

The subject of experiment [2] is P-smad3. Kind of experiment: Immunohistochemical observation of P-smad3 expression in liver cells. Type of experiment: in vivo, mice. The conditions noted are these: 100 mg/kg oral before CCl4.
The subject of experiment [3] is SMP30. Nature of the experiment: Expression of SMP30 in liver cells by immunoblotting. It is filed as in vivo. The settings on record: wild type mice; 100 mg/kg oral before CCl4; compared with CCl4 only (G2). On the procedure:
as §1
(§2) The expression of SMP30 in liver cells was investigated by immunoblotting. First, the liver tissues frozen at −70° C. were homogenized in RIPA buffer containing 0.1 mM sodium orthovandate (Na3VO4) and protease inhibitor cocktail tablet (Roche, Mannheim, Germany). […] Protein concentration was measured by Bradford method and each protein sample proceeded onto 10% SDS-polyacrylamide gel at the concentration of 80 µg/well, followed by electrophoresis. […]
(In general: A western blot detects proteins with antibodies after separation by electrophoresis.)

In the next experiment the test system is liver cells. Kind of experiment: Histopathological observation on liver cells (H&E) in CCl4-induced acute liver injury. Type of experiment: in vivo, mice. The settings on record: for necrosis in liver cells: 100 mg/kg oral one day before CCl4 0.4 ml/kg i.p., autopsy 24 hours after CCl4. The source says: In the present invention, male wild type C57BL/6(WT) at 12 weeks and SMP30 knock-out C57BL/6(KO) mice were used to induce liver injury by CCl4 and then the relation of SMP30 with arazyme was investigated. 10 male and 20 female SMP30 knock-out C57BL/6 mice were distributed from Tokyo Metropolitan Institute of Gerontology, which were then raised in the animal laboratory at Department of Pathology, College of Veterinary Medicine, Kyungpook National University, Korea. Among F1 mice generated by breeding, knock-out mice were selected by tail DNA genotyping by PCR.
Wild type mice were quarantined and adapted for 7 days in the animal laboratory. During the adaptation, every symptom was checked and only healthy animals were selected. Both wild type and SMP30 knock-out mice were 12 weeks old, excluding the difference in age.
Rats were adapted and raised in an animal facility where temperature was regulated to 22±3° C., humidity was adjusted to 55±10% and light was also regulated to 12L/12D (08:00 lights on, 20:00 lights out). The environmental conditions were checked regularly (every three months). After environmental evaluation, no changes in important conditions were recognized. During the whole experiment period, rats were raised in polycarbonate cages [240 W×390 L×175 H (mm)] by up to 5 per cage. Skin mark using an oil magic pen and individual identification card were used for distinguishment. Feed for laboratory animals (PMI Nutrition International, 505 North 4th Street Richmond, in 47374, USA) was provided at any time after being sterilized by irradiation (13.2 kGy). Tap water was provided using a water bottle at any time after being purified by a carbon filter. Carbon tetrachloride was diluted in olive oil at the concentration of 0.4 ml/kg and administered to […] once to induce liver injury. 24 hours after the administration, autopsy was performed.
Wild type mice and SMP30 knock-out mice were divided, by 5 of each, into negative control groups (G1, G5), positive control groups (G2, G6), two of experimental group 1 (G3, G7) and two of experimental group 2 (G4, G8) (Table 1). […]

Experiment [4] has as its system P-smad3. Kind of experiment: Expression of P-smad3 in liver cells by immunoblotting. It is filed as in vivo. The settings on record: SMP30 knock-out mice; compared with CCl4 alone (G6). On the procedure: as §1, §2

Regarding `O=C1O[C@H]([C@@H](O)CO)C(O)=C1O` [vitamin C, L-ascorbic acid, reference compound], in the experiment on SMP30 [1], the “SMP30 expression (immunohistochemistry)” value is reported as “higher; also recorded: more strongly expressed”. In addition, the “P-smad3 immune response (immunohistochemistry)” value with P-smad3 [2] (SMP30 knock-out mice, G6, G7 compared with G8) was “strongly detected”; in the experiment on P-smad3 [2] (wild type mice, compared with CCl4 only (G2), 100 mg/kg), “strong immune response against P-smad3 was detected in group 2 (G2) treated with CCl4 only, compared with the groups (G3, G4) treated with vitamin C and arazyme; also recorded: strongly observed in CCl4 treated group (G2), compared with the groups treated with vitamin C and arazyme (G3, G4)”. Moreover, the “SMP30 expression (immunoblotting)” value in the experiment on SMP30 [3] was “high”. Besides, the “necrosis in liver cells” value with liver cells (SMP30 knock-out C57BL/6 mice) and in the experiment on liver cells (wild type C57BL/6 mice) was “significantly inhibited” in each case. Moreover, the “apoptosis of liver cells, histological observation” value in the experiment on liver cells (wild type and SMP30 knock-out mice with acute liver injury) was “inhibition of apoptosis of liver cells was observed”. The “P-smad3 expression (immunoblotting)” value in the experiment on P-smad3 [4] is recorded as “inhibited”.
